Among the test systems are DLD-1 colon; HOP-18 NSCLC; KM20L2 colon; DMS 114 small cell lung; XF 498 CNS; MDA-N; MCF7 breast; MDA-MB-231 breast; BT-549 breast.
Holding throughout (experiment): growth of human tumour cells (NCI), 48 h

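In this assay, cells in 96-well plates receive the compound at five concentrations for 48 hours. Endpoints are linearly interpolated between the surrounding concentrations. GI50 marks 50% less growth. Definition used: TGI = concentration required for complete inhibition of growth.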

In the case of `Cc1ccc(C2CC(c3ccc([N+](=O)[O-])cc3)=Nc3ccccc3S2)cc1` (centres undefined), the TGI was 85.5 µM in the assay on DLD-1 colon; over 100 µM in the assay on HOP-18 NSCLC; 96.7 µM in the assay with KM20L2 colon; 59 µM in the assay with DMS 114 small cell lung; 55.7 µM in the assay on XF 498 CNS.

Take `CCC1=C(C)/C(=C/c2[nH]c(C(Br)Br)c(CC)c2C)N=C1C(Br)Br`: the TGI is over 100 µM with DLD-1 colon, over 100 µM with HOP-18 NSCLC, over 100 µM in the assay with KM20L2 colon and 88.6 µM in the assay on DMS 114 small cell lung.

As to `O=C(O)C1CCc2nnc(-c3ccccc3)n21` (centres undefined), the TGI in the assay on DLD-1 colon, in the assay on HOP-18 NSCLC, in the assay on KM20L2 colon and in the assay on DMS 114 small cell lung was over 100 µM in each case.

On to `COc1c(C2=NC(C(C)C)CO2)ccc2ccccc12` (centres undefined), for which the TGI with DLD-1 colon, in the assay on KM20L2 colon and with XF 498 CNS was over 100 µM each time.

As to `O=C1c2ccccc2C(=O)C2C1C1C(=O)c3ccccc3C(=O)C21` (centres undefined), the TGI with DLD-1 colon, in the assay with HOP-18 NSCLC, with KM20L2 colon and in the assay with DMS 114 small cell lung was over 100 µM in each case.

Take `CC1(C)C(c2ccccc2)C12CCC1(C2=O)C(c2ccccc2)C1(C)C` (centres undefined): the figures for the TGI with KM20L2 colon, in the assay with DMS 114 small cell lung and in the assay on XF 498 CNS were 52.9 µM, 34.9 µM and 36.1 µM, respectively.

Take `CC(C)(C)[Si](C)(C)OCC1CCC(n2cnc3c(=O)[nH]cnc32)O1` (centres undefined): the TGI in the assay with MDA-N, with MCF7 breast and in the assay on MDA-MB-231 breast was over 100 µM each time.

For the compound `Cc1c(C(=O)CC(=O)C(=O)Nc2c(C(C)C)cccc2C(C)C)[n+](=O)c2ccccc2n1[O-]`, the TGI in the assay on KM20L2 colon was determined as 15.9 µM; in the assay on DMS 114 small cell lung, 6.41 µM; in the assay with XF 498 CNS, 15 µM.

With `O=S1CSCS1` (centres undefined), the TGI in the assay on DLD-1 colon, with HOP-18 NSCLC, in the assay with KM20L2 colon, in the assay with DMS 114 small cell lung and in the assay on XF 498 CNS was over 100 µM throughout.

As for `O=C1c2ccccc2NC(c2cc(Cl)cc(Cl)c2O)N1CCc1ccccn1` (centres undefined), the TGI in the assay with MDA-N, in the assay with MCF7 breast, in the assay with MDA-MB-231 breast and in the assay with BT-549 breast was over 100 µM in each case.

Consider `CCOC(=O)c1cc(/C=C/C(C)=C/C(=O)OC)oc1-c1ccccc1`, for which the TGI with DLD-1 colon, in the assay on HOP-18 NSCLC, in the assay on KM20L2 colon, in the assay on DMS 114 small cell lung and in the assay on XF 498 CNS was over 100 µM in each case.

As to `O=C(c1ccccc1)C(c1ccccc1)C1(O)C(=O)Nc2ccccc21` (centres undefined), the TGI in the assay on DLD-1 colon, with KM20L2 colon, with DMS 114 small cell lung and in the assay with XF 498 CNS was over 100 µM throughout.

As for `CCCN(CCCN)/[N+]([O-])=N\O`, the TGI is over 100 µM in the assay on DLD-1 colon, over 100 µM in the assay on HOP-18 NSCLC, 2.74 µM in the assay with KM20L2 colon and over 100 µM with DMS 114 small cell lung.

As for `Cc1nc2ccccc2c(=O)n1/N=C(\N=Nc1cc(Cl)ccc1Cl)c1cccc(-c2ccco2)c1`, the TGI with DLD-1 colon, in the assay on HOP-18 NSCLC and with DMS 114 small cell lung was over 100 µM throughout.

Turning to `COc1cc(=O)oc(/C=C/C=O)c1C`, the TGI in the assay with DLD-1 colon was 34.3 µM; in the assay with HOP-18 NSCLC, 37.5 µM; in the assay with KM20L2 colon, 30.8 µM; with DMS 114 small cell lung it was 26.3 µM; with XF 498 CNS, 32.4 µM.

Regarding `COc1ccc(C2=Nc3ccccc3SC(C)C2)cc1` (centres undefined), the TGI in the assay with DLD-1 colon, in the assay with KM20L2 colon and in the assay on DMS 114 small cell lung was over 100 µM throughout.

As to `COc1cc([N+](=O)[O-])c(S(=O)(=O)O)cc1NS(=O)(=O)c1ccc(C)cc1`, the TGI in the assay with MDA-N, in the assay with MCF7 breast, in the assay with MDA-MB-231 breast and in the assay with BT-549 breast was over 100 µM throughout.

Regarding `CC(C)(C)N/N=C(\Cc1occc(=O)c1O)C(=O)Nc1ccc([N+](=O)[O-])cc1[N+](=O)[O-]`, the TGI with HOP-18 NSCLC, with KM20L2 colon, with DMS 114 small cell lung and with XF 498 CNS was over 100 µM in each case.

For `[C-]#[O+].[Cl][Sn]([Cl])[Cl].[Cl][Sn]([Cl])[Cl].[Pt].c1ccc([PH+](c2ccccc2)c2ccccc2)cc1.c1ccc([PH+](c2ccccc2)c2ccccc2)cc1`, the GI50 in the assay with DLD-1 colon is 45.5 µM; in the assay with HOP-18 NSCLC it was 25.3 µM; in the assay on KM20L2 colon it was over 100 µM; in the assay with DMS 114 small cell lung, 21.8 µM. Besides, the TGI with DLD-1 colon was over 100 µM; with HOP-18 NSCLC it was 90 µM; in the assay on KM20L2 colon, over 100 µM; with DMS 114 small cell lung it was 51.2 µM.

Turning to `CCNC(C)(C)C(SS)c1ccc(Br)cc1` (centres undefined), the TGI with MDA-N, in the assay with MCF7 breast, in the assay with MDA-MB-231 breast and with BT-549 breast was over 100 µM in each case.

Regarding `NC(N)=NS(=O)(=O)c1ccc(Nc2c3ccccc3nc3c(C(=O)N4CCN(CCO)CC4)cccc23)cc1`, the TGI in the assay with DLD-1 colon, with HOP-18 NSCLC, in the assay with KM20L2 colon, in the assay with DMS 114 small cell lung and with XF 498 CNS was over 100 µM throughout.

`N=Nc1c(OC(=O)Nc2ccccc2)[nH]c2ccccc12`: the TGI in the assay with MDA-N stood at 61.8 µM; with MCF7 breast, 38.8 µM; in the assay on MDA-MB-231 breast, 41.6 µM; in the assay with BT-549 breast it was 27.6 µM.

With `O=C(CC(=O)c1ccc([N+](=O)[O-])cc1)C(=O)Nc1nccs1`, the TGI with DLD-1 colon, in the assay with HOP-18 NSCLC, with KM20L2 colon, with DMS 114 small cell lung and with XF 498 CNS was over 100 µM throughout.

As to `NC1=NC(c2ccc(Cl)cc2)N(c2ccc(S(=O)(=O)Nc3ncccn3)cc2)C(N)=N1` (centres undefined), the TGI in the assay on MDA-N, in the assay with MCF7 breast, in the assay with MDA-MB-231 breast and with BT-549 breast was over 100 µM each time.

For `N=CCCN(CCC=N)c1ccc(/C=C2\CN(NC(=O)c3ccc(Cl)cc3)C(c3ccccc3)=N2)cc1`, the TGI with DLD-1 colon, in the assay on HOP-18 NSCLC, in the assay on KM20L2 colon and with DMS 114 small cell lung was over 100 µM in each case.

(Values after PubChem BioAssay (NCI).)
